Experiment: xn = mol fraction of the nth substance listed
Conditions: 100 kPa

CC[n+]1ccn(CCOC)c1.N#C[S-] + CCCCO
viscosity [mPa·s]
Conditions | x1 = 0.1 | x1 = 0.1999 | x1 = 0.2996 | x1 = 0.4001 | x1 = 0.4996 | x1 = 0.5995 | x1 = 0.6979 | x1 = 0.7993 | x1 = 0.9 | x1 = 1
288.15 K | 4.85 | 6.76 | 9.62 | 13.89 | 20 | 27.4 | 40.1 | 53 | 72 | 93.1
293.15 K | 4.22 | 5.84 | 8.21 | 11.73 | 16.88 | 22.5 | 32.3 | 42.1 | 56.5 | 70.8
298.15 K | 3.73 | 5.1 | 7.11 | 10.04 | 14.26 | 19 | 26.4 | 34.1 | 44.9 | 55.8
303.15 K | 3.3 | 4.49 | 6.22 | 8.68 | 12.18 | 16.18 | 22 | 28 | 36.4 | 44.3
308.15 K | 2.93 | 4.01 | 5.48 | 7.57 | 10.46 | 13.82 | 18.7 | 23.4 | 30 | 36
313.15 K | 2.62 | 3.57 | 4.86 | 6.66 | 9.07 | 11.91 | 16.06 | 19.9 | 25.1 | 29.7
318.15 K | 2.35 | 3.21 | 4.34 | 5.9 | 7.94 | 10.35 | 13.87 | 17.27 | 21.3 | 24.9

CCCCCCCC[n+]1ccccc1.O=S(=O)([N-]S(=O)(=O)C(F)(F)F)C(F)(F)F + CCCCOC(C)=O
Conditions | electrical conductivity [S/m]
298.15 K, x2 = 0.6824 | 0.371

CC(=O)[O-].Cn1cc[nH+]c1 + CCCC[N+]1(C)CCCC1.O=S(=O)([N-]S(=O)(=O)C(F)(F)F)C(F)(F)F
298.15 K
Conditions | viscosity [mPa·s]
x1 = 0.19 | 52.7
x1 = 0.5 | 26.9
x1 = 1 | 6.22
